Data set [1] is classed as physicochemical. On the procedure:
Lipophilicity was calculated using RP-HPLC. A stock solution of each PC was injected at different isocratic ratios ranging from 70–90% solvent B (organic) at a flow rate of 1 mL·min^−1 [32, 33, 34]. The complexes have low solubility in water, often requiring DMSO to make concentrated solutions. Yet the LogK’ calculated using these experimental data indicated high lipophilicity, which is typical for 2+ charged complexes. […] When heat was applied, they would not precipitate out of the solution after cooling. This confirmed that a lack of persistence was the cause of the “observed” low solubility in H2O. […] Their increased lipophilicity may indicate they have the potential to be administered orally, a characteristic usually associated with Pt(IV) complexes. Other factors, such as stability and cellular absorption, would need to be considered before the potential of these Pt(II) anticancer agents could be evaluated.
Lipophilicity was evaluated using RP-HPLC, whereby LogKw is calculated by injecting a stock solution of the PC at different isocratic ratios ranging from 70–90% solvent B (organic) at a flow rate of 1 mL·min^−1. An Agilent Technologies 1260 Infinity machine equipped with a Phenomenex Onyx™ Monolithic C18 reverse phase column (100 × 4.6 mm, 130 Å) was used to determine purity. The mobile phase comprised 0.06% TFA in water (solvent A) and 0.06% TFA in 90:10 ACN:H2O mixture (solvent B). The PC peak was eluted outside the dead zero volume time to avoid inaccurate results. The dead zero volume time was determined using potassium iodide as an external dead volume marker, with further details in the Supplementary Materials. The subsequent peaks were recorded, and K was calculated using Equation (6). (6) K=tr−t0/t0 where K is the capacity factor, tr is the retention time of the analyte, and t0 is the dead time determined using a solution of KI in the same column. At least five different isocratic ratios were used to assess each PC, and each experiment was repeated three times. LogK’ was then calculated and plotted against the concentration of ACN in the mobile phase. […] (7) LogK^′=Sφ+LogKw where S is the slope, φ is the concentration of ACN in the mobile phase, and LogKw represents the capacity factor of the compound in 100% water (Figure S49).

For another data set, the system named is H460 (Lung). Briefly: MTT cytotoxicity assay, H460. The format is cell-based. The settings on record: 72 h exposure. For orientation: Formazan colour is commonly taken as a measure of viable cells.
In the next data set the test system is Du145 (Prostate). Briefly: MTT cytotoxicity assay, Du145. The format is cell-based. The conditions noted are these: 72 h exposure.
A further data set deals with MCF10A (Breast, Normal). Briefly: MTT cytotoxicity assay, MCF10A non-cancer breast cells. The class given is cell-based. The settings on record: 72 h exposure.
The next data set deals with U87 (Glioblastoma). Kind of data set: MTT cytotoxicity assay, U87. The class given is cell-based. The conditions noted are these: 72 h exposure.
Another data set has as its system SJ-G2 (Glioblastoma). Kind of data set: MTT cytotoxicity assay, SJ-G2. The class given is cell-based. The settings on record: 72 h exposure.
The subject of a further data set is HT29 (Colon). Briefly: MTT cytotoxicity assay, HT29. The class given is cell-based. The conditions noted are these: 72 h exposure.
A further data set deals with Calf-thymus DNA (ctDNA). Briefly: Fluorescent intercalator displacement (FID) ctDNA binding assay with ethidium bromide. The conditions noted are these: 75 µM ethidium bromide, 150 µM ctDNA, pH 7.0. The arrangement: Ka (binding coefficient) / KF (binding constant for fluorescence) / Kq (bimolecular quenching constant) / KSV (Stern–Volmer quenching constant): unit not given here. The procedure: To achieve this, the fluorescent signal of a DNA intercalator, in this case, ethidium bromide (EtBr), is measured as increasing concentrations of PC are added. As the PC displaces the EtBr, the fluorescence of the mixture is diminished, and the DNA binding capacity of the complex can be calculated from the fluorescence measurement. Calf-thymus DNA (ctDNA) was used and saturated with EtBr. The change in fluorescence is monitored as the complex is titrated into this solution. Once the decrease in fluorescence plateaued, the titration was ended. […] The fluorescence was measured from 550-750 nm and excited at 480 nm. Importantly, the cuvette was inverted four times, and the solution was incubated for 3 min after the addition of […] to allow adequate time for the PCs to interact with the DNA before scanning. […] A plot of F0/F against [PC] using experimental values allowed the determination of Kq and KSV from the slope as per Equation (5). (5) […] where n is the number of ethidium ligands that are displaced per PC. It is important to note that this expression is a simplification of the true binding interaction, as it ignores the effect of EtBr on the binding equilibrium. […] A plot of Log10[(F0 - F)/F)] against Log10[PC] was used to determine KF and n from the intercept and slope, respectively.

The subject of another data set is A431 (Skin). Kind of data set: MTT cytotoxicity assay, A431. The format is cell-based. The conditions noted are these: 72 h exposure.
For the next data set, the system named is MIA (Pancreas). Briefly: MTT cytotoxicity assay, MIA. The class given is cell-based. The conditions noted are these: 72 h exposure.
In a further data set the test system is MCF-7 (Breast). Briefly: MTT cytotoxicity assay, MCF-7. The class given is cell-based. The conditions noted are these: 72 h exposure.
The subject of the next data set is BE2-C (Neuroblastoma). Kind of data set: MTT cytotoxicity assay, BE2-C. The format is cell-based. The conditions noted are these: 72 h exposure.

On to `N[C@H]1CCCC[C@@H]1N.[Pt+2].c1ccc(C2CCCN2)nc1` [Complex 4a, [Pt(2-pyrrolidin-2-yl pyridine)(1S,2S-(+)-diaminocyclohexane)]^2+], for which the Lipophilicity in data set [1] worked out at 2.68 ± 0.02. In addition, the GI50 (in general, the concentration giving 50% growth inhibition) in the data set with H460 (Lung) is 4.4 ± 0.7 µM; in the data set on Du145 (Prostate) it was 47 ± 1.7 µM; with MCF10A (Breast, Normal) it was 42 ± 3 µM; in the data set with U87 (Glioblastoma) it was 48 ± 2.6 µM; in the data set with SJ-G2 (Glioblastoma), 17 ± 1.9 µM; in the data set on HT29 (Colon), above 50 µM. Also, the concentration for 50% growth inhibition (GI50) is 9 ± 2.3 µM with A431 (Skin), 12 ± 1 µM in the data set with MIA (Pancreas), 3.2 ± 0.6 µM in the data set with MCF-7 (Breast) and 37.5 ± 0.5 µM with BE2-C (Neuroblastoma). The “Binding Stoichiometry” value with Calf-thymus DNA (ctDNA) worked out at 1.48. For the same compound, the “KF (binding constant for fluorescence)” value in the data set on Calf-thymus DNA (ctDNA) is on record as 6.20 × 10^3. The “KSV (Stern–Volmer quenching constant)” value with Calf-thymus DNA (ctDNA) was 4.16 × 10^3. Besides, the “Ka (binding coefficient)” value in the data set on Calf-thymus DNA (ctDNA) is 1.06 × 10^4. The “Kq (bimolecular quenching constant)” value with Calf-thymus DNA (ctDNA) is on record as 0.83 × 10^3. In addition, the “n (molar equivalents of PC at the point of intersection)” value in the data set on Calf-thymus DNA (ctDNA) is 1.83. The “ΔFsat (change in fluorescence at the point of binding)” value in the data set with Calf-thymus DNA (ctDNA) is recorded as 135.0.

In turn, “[Pt(2-(2-pyridyl)benzimidazole)(1R,2R-(+)-diaminocyclohexane)]^2+ [Complex 6b]” showed a Lipophilicity in data set [1] of 2.46 ± 0.025. The 50% growth inhibitory concentration (GI50) came out at 16 ± 1.2 µM in the data set on H460 (Lung); 22 ± 1.5 µM in the data set with Du145 (Prostate); 17 ± 1.5 µM in the data set on MCF10A (Breast, Normal); 7.6 ± 0.46 µM in the data set on U87 (Glioblastoma); 38 ± 5.9 µM with SJ-G2 (Glioblastoma); 33 ± 1.2 µM in the data set on HT29 (Colon). Besides, the GI50 in the data set on A431 (Skin) was 24 ± 2.6 µM; in the data set on MIA (Pancreas), 30 ± 6.9 µM; in the data set with MCF-7 (Breast), 8 ± 1.6 µM; in the data set with BE2-C (Neuroblastoma), 30 ± 2.1 µM. Moreover, in the data set with Calf-thymus DNA (ctDNA), the “Binding Stoichiometry” value was found to be 0.94. Also, in the data set with Calf-thymus DNA (ctDNA), the “KF (binding constant for fluorescence)” value is given as 2.84 × 10^3. In addition, the “KSV (Stern–Volmer quenching constant)” value with Calf-thymus DNA (ctDNA) is 2.07 × 10^3. The “Ka (binding coefficient)” value with Calf-thymus DNA (ctDNA) is 7.43 × 10^4. For the same compound, the “Kq (bimolecular quenching constant)” value with Calf-thymus DNA (ctDNA) is 0.30 × 10^3. The “n (molar equivalents of PC at the point of intersection)” value in the data set with Calf-thymus DNA (ctDNA) came out at 0.67. Further, in the data set on Calf-thymus DNA (ctDNA), the “ΔFsat (change in fluorescence at the point of binding)” value is listed as 113.0.

The values above are taken from paper PMC10742472, “Synthesis and Characterisation of Platinum(II) Diaminocyclohexane Complexes with Pyridine Derivatives as Anticancer Agents” (International Journal of Molecular Sciences, 2023).
